According to patent publication US5280033A, “Substituted 1-(alkoxy-iminoalkyl) imidazole derivatives and their use in treating disease related to an enhancement of thromboxane-A2 syntheis” (Farmitalia Carlo Erba S RL, priority 1990, dated 1994):
“Also recorded” adds a separate entry of the source.

Assays:
TxA2 Synthase [1] = molecular target: T1, TxA2 Synthase (Rattus norvegicus, UniProt P49430); assay: TxA2 Synthase activity in vitro: TxB2 generated in whole blood during clotting (RRM rats); type: cell-based; settings: for inhibitory activity on TxA2 synthesis (in words): in vitro, RRM rat whole blood / glomeruli; for IC50: whole blood of RRM rats, clotting 1 h at 37° C., n = 8, limits for p = 0.95, read-out: In vitro effects on T × B2 production, IC50, Whole Blood
T1 construct: TxB2 generated in whole blood during clotting; from tissue; host or cells: rat whole blood, clotting (RRM rats)
T1 sequence (P49430 1-533): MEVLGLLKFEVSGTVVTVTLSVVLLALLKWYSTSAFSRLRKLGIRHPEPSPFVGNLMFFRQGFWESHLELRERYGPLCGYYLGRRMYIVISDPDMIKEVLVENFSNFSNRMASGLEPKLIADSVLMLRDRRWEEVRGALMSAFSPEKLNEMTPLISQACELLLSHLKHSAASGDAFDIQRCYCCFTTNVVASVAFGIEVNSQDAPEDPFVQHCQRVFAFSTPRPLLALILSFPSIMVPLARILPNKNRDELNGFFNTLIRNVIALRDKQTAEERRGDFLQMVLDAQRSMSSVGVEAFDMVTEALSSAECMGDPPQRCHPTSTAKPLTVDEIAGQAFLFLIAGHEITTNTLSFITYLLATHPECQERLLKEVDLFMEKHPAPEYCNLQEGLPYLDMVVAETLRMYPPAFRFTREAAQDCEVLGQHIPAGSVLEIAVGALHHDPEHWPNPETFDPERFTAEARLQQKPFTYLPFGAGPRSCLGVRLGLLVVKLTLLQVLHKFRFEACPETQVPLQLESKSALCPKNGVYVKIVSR
Experimental: (§1) The compounds of formula (I) were for example tested for their ability to inhibit TxA2 Synthase activity (as reflected by TxB2 generated in whole blood during clotting or in isolated glomeruli) in vitro in the rat.
(§2) The in vitro experiments were carried out as follows: The effect of the compounds on TxA2 synthesis was evaluated in serum and in glomeruli isolated from kidney cortex of reduced renal mass rats (RRM). Ablation of >70% of renal mass in the rat results in hypertension, proteinuria and glomerular sclerosis of the remnant kidney. Rats with a remnant kidney have increased excretion of thromboxane in the urine when compared with normal rats (Purkerson et al., Proc. Natl. Acad. Sci. USA 82, 193, 1985).
Blood was withdrawn from the abdominal aorta of the animals under light ether anesthesia.
Samples were then allowed to clot for 1 h at 37° C., centrifuged at 3000 rpm for 10 min, serum collected and stored at -20° C. until assayed. TxB2 levels were determined by RIA according to previously described procedures [Patrono et al.-Thromb. Res. 17, 3/4, 317, 1980] using highly specific antibody.

[2] = molecular target: T2, TxA2 receptor (washed human platelets) (Homo sapiens, UniProt P21731); assay: TxA2 antagonism, [^3H]-SQ 29,548 binding displacement in washed human platelets
T2 construct: endogenous in cells; host or cells: washed platelets of healthy human volunteers
T2 sequence (P21731 1-343): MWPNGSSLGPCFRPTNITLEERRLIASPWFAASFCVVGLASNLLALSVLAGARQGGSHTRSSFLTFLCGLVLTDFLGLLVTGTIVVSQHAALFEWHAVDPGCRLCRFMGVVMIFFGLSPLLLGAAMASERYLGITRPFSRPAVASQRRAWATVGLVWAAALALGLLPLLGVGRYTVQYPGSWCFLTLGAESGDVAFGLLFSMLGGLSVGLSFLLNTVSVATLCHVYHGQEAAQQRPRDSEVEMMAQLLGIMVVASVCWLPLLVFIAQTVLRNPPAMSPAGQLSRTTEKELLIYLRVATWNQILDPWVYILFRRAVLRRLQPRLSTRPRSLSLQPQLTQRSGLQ
Experimental: Moreover the compounds of the invention were tested for TxA2 antagonism in a binding assay in washed human platelets, using as radiolabelled ligand [^3 H]-SQ 29,548.
The experiments were carried out as follows: Blood from healthy volunteers of both sexes who had no taken any medication for at least 10 days is collected into one-tenth volume of acid citrate dextrose containing indomethacin (28 μM). Platelet rich plasma (PRP), obtained by centrifugation of the blood at 200×g for 20 min, is washed twice (1000×g for 10 min). The platelets are then resuspended in Tyrode-Hepes buffer (pH 7.4) to a final concentration of […] and incubated for 0-60 min at 25° with [^3 H]-SQ 29,548 (5 nM). For displacement experiments various concentrations (10^-9 -10^-4 M) of competing ligands were added and incubated for 30 min at 25° C.
After the incubation, 4 ml of ice-cold TRIS-HCL buffer (10 mM, pH 7.4) was added to each tube and the reaction mixture was immediately filtered by suction through a Whatman […] glass filter disc which was washed 2 times with ice-cold TRIS-HCl (4 ml) and counted for radioactivity by a Packard-β-counter.

TxA2 Synthase [3] = molecular target: T1, TxA2 Synthase; settings: no test data given; cited from earlier work
TxA2 Synthase [4] = molecular target: T1, TxA2 Synthase; assay: TxA2 Synthase activity in vitro: TxB2 production in isolated glomeruli (RRM rats); type: cell-based; settings: isolated glomeruli of RRM rats, 1 h at 37° C., n = 6; limits for p = 0.95; read-out: In vitro effects on T × B2 production, IC50, Glomeruli
Experimental: as §1, §2
The isolated glomeruli of 4 rats were pooled, suspended in modified Krebs buffer (pH 7.3) and divided into portions of 1 ml each containing a concentration of the test compounds or of the reference compounds.

SMILES | IC50 (TxA2 Synthase [1]) [nM] | IC50 ([2]; [^3H]-SQ 29,548 5 nM, 30 min at 25° C.) [nM] | IC50 (TxA2 Synthase [4]) [nM] | inhibitory activity on TxA2 synthesis (in words) (TxA2 Synthase [1]) | affinity for the receptor (in words) ([2]; [^3H]-SQ 29,548 binding) | TxA2 synthase inhibitory activity of known compound (in words) (TxA2 Synthase [3])
O=C(O)CCCCO/N=C(\c1ccccc1)C(Cc1ccccc1)n1ccnc1 (racemic) [FCE 27109, (±) (E)-5-[1-phenyl-2-(imidazol-1-yl)-2-benzylethylidene]aminoxypentanoic acid] | 48.3 | 190 | – | marked inhibitory activity on TxA2 synthesis significantly more potent than that of reference compounds Dazoxiben and ASA; also recorded: active as TxA2 synthase inhibitor | good affinity for the receptor better than that showed by the known compound Sulotroban (BM 13177) | –
O=C(O)COc1ccc(CCNS(=O)(=O)c2ccccc2)cc1 [BM 13177, Sulotroban] | – | – | – | – | – | devoid of TxA2 synthase inhibitory activity
CC(=O)Oc1ccccc1C(=O)O [ASA, Acetylsalicylic acid, reference compound] | 42000 | – | – | – | – | –

Second part, led by results:

IC50 (TxA2 Synthase [1]) [nM] | IC50 ([2]; [^3H]-SQ 29,548 5 nM, 30 min at 25° C.) [nM] | IC50 (TxA2 Synthase [4]) [nM] | SMILES | inhibitory activity on TxA2 synthesis (in words) (TxA2 Synthase [1]) | affinity for the receptor (in words) ([2]; [^3H]-SQ 29,548 binding) | TxA2 synthase inhibitory activity of known compound (in words) (TxA2 Synthase [3])
23 | – | – | O=C(O)CCCCO/N=C(/c1ccccc1)C(Cc1ccccc1)n1ccnc1 (racemic) [FCE 27108, (±) (Z)-5-[1-phenyl-2-(imidazol-1-yl)-2-benzylethylidene]aminoxypentanoic acid] | marked inhibitory activity on TxA2 synthesis significantly more potent than that of reference compounds Dazoxiben and ASA | – | –
19 | – | 36 | O=C(O)CCCCO/N=C(\Cn1ccnc1)C1CCCCC1 [FCE 26398, (Z)-5-[1-cyclohexyl-2-(imidazol-1-yl)-ethylidene]aminoxypentanoic acid] | marked inhibitory activity on TxA2 synthesis significantly more potent than that of reference compounds Dazoxiben and ASA | – | –
